Tests used:
CDK2/cyclin A2 = biological target: T1, CDK2/cyclin A2 (Homo sapiens, UniProt P24941); test: Human CDK2/cyclin A2 inhibitory activity (QS S Assist CDK2/Cyclin A2_FP Kit, IMAP fluorescent polarization); type: biochemical; settings: read-out: CDK2 Activity symbol
T1 construct: purchased Carna Biosciences, Inc. QS S Assist CDK2/Cyclin A2_FP Kit
How it was run: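 Kit CDK2/cyclin A2 (2.5 ng/well) was reacted with kit ATP/substrate/metal in 20 mM HEPES pH 7.4, 0.01% Tween 20 and 2 mM DTT for 60 min at room temperature. IMAP binding reagent was added for 30 min, then fluorescence polarization was read at 485/535 nm. IC50 came from dose-response fitting of percent inhibition.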

CDK4/cyclin D3 = biological target: T2, CDK4/cyclin D3 (Homo sapiens, UniProt P11802); test: Human CDK4/cyclin D3 inhibitory activity (QS S Assist CDK4/Cyclin D3_FP Kit, IMAP fluorescent polarization); type: biochemical; settings: read-out: CDK4 Activity symbol
T2 construct: purchased Carna Biosciences, Inc. QS S Assist CDK4/Cyclin D3_FP Kit
T2 sequence (P11802 whole entry): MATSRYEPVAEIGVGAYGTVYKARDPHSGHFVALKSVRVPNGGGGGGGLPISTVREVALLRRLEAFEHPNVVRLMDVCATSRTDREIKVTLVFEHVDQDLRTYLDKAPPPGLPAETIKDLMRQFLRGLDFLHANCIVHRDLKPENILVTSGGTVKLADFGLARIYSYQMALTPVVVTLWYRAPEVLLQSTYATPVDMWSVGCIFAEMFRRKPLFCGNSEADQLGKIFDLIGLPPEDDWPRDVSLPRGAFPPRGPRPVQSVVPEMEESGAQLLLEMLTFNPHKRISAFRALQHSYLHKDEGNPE
T2 sequence (P30281 whole entry partner): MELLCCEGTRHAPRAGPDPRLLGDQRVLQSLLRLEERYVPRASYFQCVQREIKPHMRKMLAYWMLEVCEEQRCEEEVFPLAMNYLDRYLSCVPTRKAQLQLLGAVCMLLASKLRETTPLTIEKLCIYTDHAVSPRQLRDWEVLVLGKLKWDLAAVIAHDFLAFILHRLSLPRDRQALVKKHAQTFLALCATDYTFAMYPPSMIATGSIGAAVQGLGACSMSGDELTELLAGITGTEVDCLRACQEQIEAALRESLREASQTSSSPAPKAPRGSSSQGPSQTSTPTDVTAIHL
How it was run: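 Kinase reactions used kit CDK4/cyclin D3 at 12.5–25 ng/well with the kit ATP/substrate/metal mix in 20 mM HEPES (pH 7.4), 0.01% Tween20 and 2 mM DTT, run 45 min at room temperature. Phosphorylation was detected by IMAP fluorescence polarization (ex 485/em 535 nm) after 30 min binding in the dark. IC50 was fitted from percent inhibition against DMSO controls with and without enzyme.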

Row | SMILES | IC50 (CDK2/cyclin A2) [nM] | IC50 (CDK4/cyclin D3) [nM]
1 | Cc1nc(Nc2ncc3cc([C@@H](C)O)nc(N4CC[C@H](C)C4)c3n2)ccc1N1CCNCC1=O [Compound 261] | ≥ 100 | < 10
2 | C[C@@H](O)c1cc2cnc(Nc3ccc4c(n3)CCN(C(=O)CN3CCC(O)CC3)C4)nc2c(N2C3CCC2CC3)n1 [Compound 262] | ≥ 100 | < 10
3 | C[C@@H](O)c1cc2cnc(Nc3ccc4c(n3)CCN(C(=O)CN3CCN(CCO)CC3)C4)nc2c(N2C3CCC2CC3)n1 [Compound 263] | ≥ 100 | < 10
4 | C[C@@H](O)c1cc2cnc(Nc3ccc4c(n3)CCN(C(=O)CN3CCN(C)CC3)C4)nc2c(N2C3CCC2CC3)n1 [Compound 264] | ≥ 100 | < 10
5 | C[C@@H](O)c1cc2cnc(Nc3ccc4c(n3)CCN(C(=O)CN3CC5(CN(C)C5)C3)C4)nc2c(N2C3CCC2CC3)n1 [Compound 265] | ≥ 100 | < 10
6 | C[C@@H](O)c1cc2cnc(Nc3ccc4c(n3)CCN(C(=O)CN3CC5(COC5)C3)C4)nc2c(N2CCCCC2)n1 [Compound 266] | ≥ 100 | < 10
7 | C[C@@H](O)c1cc2cnc(Nc3ccc4c(n3)CCN(C(=O)CN3CC5(CC(O)C5)C3)C4)nc2c(N2C3CCC2CC3)n1 [Compound 267] | ≥ 100 | < 10
8 | C[C@@H](O)c1cc2cnc(Nc3ccc4c(n3)CCN(C(=O)CN3CC5(CC(O)C5)C3)C4)nc2c(N2CCCCC2)n1 [Compound 268] | ≥ 100 | < 10
9 | c1cc(N2CCNCC2)nnc1Nc1ncc2cc(C3COC3)nc(N3CCCCC3)c2n1 [Compound 277] | ≥ 100 | 10 to 100
10 | C[C@@H](O)c1cc2cnc(Nc3ccc4c(n3)CCN(C3CN(C)C3)C4)nc2c(N2CCC(C#N)CC2)n1 [Compound 279] | ≥ 100 | < 10
11 | CC(O)c1cc2cnc(Nc3ccc4c(n3)CC3CCC4N3CCO)nc2c(N2CCCCC2)n1 (stereo not shown) [Compound 280] | ≥ 100 | 10 to 100
12 | C[C@@H](O)c1cc2cnc(Nc3ccc(N4CCNCC4=O)cn3)nc2c(N2C3CCCC2CC3)n1 [Compound 281] | ≥ 100 | < 10
13 | C[C@@H](O)c1cc2cnc(Nc3ccc4c(n3)CCN([C@H]3CC[C@H](O)CC3)C4)nc2c(N2CCCCC2)n1 [Compound 283] | ≥ 100 | 10 to 100
14 | C[C@@H](O)c1cc2cnc(Nc3ccc4c(n3)CCN(C(=O)Cc3ccncc3)C4)nc2c(N2CCCCC2)n1 [Compound 285] | ≥ 100 | 10 to 100
15 | CC(O)c1cc2cnc(Nc3ccc(N4CCNCC4)cn3)nc2c(N2CCOCC2C)n1 (stereo not shown) [Compound 289] | ≥ 100 | < 10
16 | C[C@@H](O)c1cc2cnc(Nc3ccc(CN4CCN(C)CC4)cn3)nc2c(N2CCOC[C@@H]2C)n1 [Compound 290] | ≥ 100 | < 10
17 | CC(O)c1cc2cnc(Nc3ccc(CN4CCN(C)CC4)cn3)nc2c(N2C3CCC2COC3)n1 (stereo not shown) [Compound 292] | ≥ 100 | < 10
18 | C[C@@H](O)c1cc2cnc(Nc3ccc(CN4CCN(CCO)CC4)cn3)nc2c(N2CCOC[C@@H]2C)n1 [Compound 293] | ≥ 100 | 10 to 100
19 | CC(O)c1cc2cnc(Nc3ccc(CN4CCN(CCO)CC4)cn3)nc2c(N2CCOCC2C)n1 (stereo not shown) [Compound 294] | ≥ 100 | < 10
20 | CC(O)c1cc2cnc(Nc3ccc(CN4CCN(CCO)CC4)cn3)nc2c(N2C3CCC2COC3)n1 (stereo not shown) [Compound 295] | ≥ 100 | < 10
21 | Cc1nc(Nc2ncc3cc([C@@H](C)O)nc(N4CCOC[C@H]4C)c3n2)ccc1N1CCNCC1 [Compound 297] | ≥ 100 | < 10
22 | Cc1nc(Nc2ncc3cc([C@@H](C)O)nc(N4C5CCC4COC5)c3n2)ccc1N1CCNCC1 [Compound 298] | ≥ 100 | < 10
23 | CC(O)c1cc2cnc(Nc3ccc(N4CCNCC4=O)cn3)nc2c(N2C3CCC2COC3)n1 (stereo not shown) [Compound 301] | ≥ 100 | 10 to 100
24 | CC(O)c1cc2cnc(Nc3ccc(N4CCNCC4=O)cn3)nc2c(N2CCCC2C)n1 (stereo not shown) [Compound 302] | 10 to 100 | < 10
25 | CC(O)c1cc2cnc(Nc3ccc(N4CCNCC4=O)cn3)nc2c(N2CCCCC2C)n1 (stereo not shown) [Compound 303] | ≥ 100 | < 10
26 | C[C@@H](O)c1cc2cnc(Nc3ccc(C(=O)N4CCCN(C)CC4)cn3)nc2c(N2CCCCC2)n1 [Compound 304] | 10 to 100 | < 10
27 | Cc1nc(Nc2ncc3cc([C@@H](C)O)nc(N4CCCCC4)c3n2)ccc1N1CCCNCC1=O [Compound 305] | 10 to 100 | < 10

Other lines, results leading:

Row | IC50 (CDK2/cyclin A2) [nM] | IC50 (CDK4/cyclin D3) [nM] | SMILES
28 | ≥ 100 | < 10 | C[C@@H](O)c1cc2cnc(Nc3ccc4c(n3)CCN(C(=O)CN3CC(F)C3)C4)nc2c(N2CCCCC2)n1 [Compound 269]
29 | ≥ 100 | < 10 | C[C@@H](O)c1cc2cnc(Nc3ccc4c(n3)CCN(C(=O)CN3CCC3)C4)nc2c(N2CCCCC2)n1 [Compound 270]
30 | ≥ 100 | < 10 | C[C@@H](O)c1cc2cnc(Nc3ccc(CN4CCN(CCO)CC4)cn3)nc2c(N2CCC(C#N)CC2)n1 [Compound 271]
31 | ≥ 100 | < 10 | C[C@@H](O)c1cc2cnc(Nc3ccc(N4CCNCC4=O)cn3)nc2c(N2CCC(C#N)CC2)n1 [Compound 272]
32 | ≥ 100 | < 10 | C[C@@H](O)c1cc2cnc(Nc3ccc(N4CCNCC4)nn3)nc2c(N2CCC(C#N)CC2)n1 [Compound 273]
33 | ≥ 100 | < 10 | C[C@@H](O)c1cc2cnc(Nc3ccc4c(n3)CCNC4)nc2c(N2CCC(C#N)CC2)n1 [Compound 274]
34 | ≥ 100 | < 10 | OCCN1CCN(Cc2ccc(Nc3ncc4cc(C5COC5)nc(N5CCCCC5)c4n3)nc2)CC1 [Compound 275]
35 | ≥ 100 | < 10 | O=C1CCNCCN1c1ccc(Nc2ncc3cc(C4COC4)nc(N4CCCCC4)c3n2)nc1 [Compound 276]
36 | ≥ 100 | < 10 | C[C@@H](O)c1cc2cnc(Nc3ccc4c(n3)CCN(CCO)C4)nc2c(N2CCC(C#N)CC2)n1 [Compound 278]
37 | ≥ 100 | < 10 | C[C@@H](O)c1cc2cnc(Nc3ccc4c(n3)CCN(C3CCOCC3)C4)nc2c(N2CCCCC2)n1 [Compound 282]
38 | ≥ 100 | 10 to 100 | C[C@@H](O)c1cc2cnc(Nc3ccc4c(n3)CCN([C@H]3CC[C@@H](O)CC3)C4)nc2c(N2CCCCC2)n1 [Compound 284]
39 | ≥ 100 | < 10 | C[C@@H](O)c1cc2cnc(Nc3ccc4c(n3)CCN(C(=O)Cn3ccnc3)C4)nc2c(N2CCCCC2)n1 [Compound 286]
40 | ≥ 100 | < 10 | C[C@@H](O)c1cc2cnc(Nc3ccc(N4CCNCC4)cn3)nc2c(N2CCOC[C@@H]2C)n1 [Compound 288]
41 | ≥ 100 | < 10 | Cc1nc(Nc2ncc3cc([C@@H](C)O)nc(N4CCOC[C@@H]4C)c3n2)ccc1N1CCNCC1 [Compound 296]
42 | ≥ 100 | 10 to 100 | C[C@@H](O)c1cc2cnc(Nc3ccc(N4CCNCC4=O)cn3)nc2c(N2CCOC[C@@H]2C)n1 [Compound 299]
43 | ≥ 100 | 10 to 100 | CC(O)c1cc2cnc(Nc3ccc(N4CCNCC4=O)cn3)nc2c(N2CCOCC2C)n1 (stereo not shown) [Compound 300]
44 | 10 to 100 | < 10 | Cc1nc(Nc2ncc3cc([C@@H](C)O)nc(N4CCCCCC4)c3n2)ccc1N1CCCNCC1=O [Compound 306]
